# According to US20030170252A1, “Antibody compositions specific for p33QIK and p63Krs1 polypeptides and uses thereof” (priority 2000, published 2003):
# Residues, ends and D or L forms follow the SMILES beside them. *: point of attachment. Cbz = O=C(OCc1ccccc1)*; CH2F = FC*
# Key:
# Format in all cases: cell-based, mouse
# p33^QIK = experiment: In-gel kinase assay (MBP substrate) of p33^QIK activity in treated NIH3T3 cultures; conditions: for kinase activity of p33^QIK: quiescent NIH3T3 cultures (48 hr serum starvation) stimulated with reagent, 1-6 hr
# Method: (§1) Mouse NIH3T3 fibroblast cultures were maintained in Dulbecco's modified Eagle's medium (DMEM)(BRL/GIBCO, Grand Island, N.Y.) supplemented with 5% calf serum, 50 units/ml penicillin, and 5 mcg/ml streptomycin, and cultivated at 37° C.
# (§2) Mouse 10T1/2 fibroblast cultures were maintained in Basal medium Eagle (BRL/GIBCO, Grand Island, N.Y.) supplemented with 10% heat-inactivated fetal bovine serum, 50 U/ml penicillin, and 5 μg/ml streptomycin, and cultivated at 37° C. Cells synchronized in quiescent state were growth-arrested by serum starvation for 48 hr. Actinomycin D (ActD), cycloheximide (CHXM), 12-0-tetradecanoylphorbol 13-acetate (TPA), staurosporine (STSP) (Sigma Chemical, St. Louis, Mo.), sodium fluoride (NaF), sodium orthovanadate (Na3VO4) (Fisher Scientific, Pittsburgh, Pa.), and FR901228 (FR)(NCI, Frederick, Md.) were diluted in cultured medium before treatment of cultured cells. A broad range caspase inhibitor Z-Asp-[(2,6-dichlorobenzoyl)oxy]methane (Z-D-CH2-DCB) (Dolle et al., 1994; Mashima et al., 1995)(CALBIOCHEM, La Jolla, Calif.) was dissolved in dimethyl sulfoxide and diluted in cultured medium for treatment. Recombinant human Caspase-3 was purchased from Alexis Biochemicals (San Diego, Calif.). Protein phosphatase 1 (PP1) and Lambda protein phosphatase (λPPase) were purchased from NE BioLabs (Beverly, Mass.). Production of rabbit polyclonal antibody Ab-KQ to p63^Krsl and p33^QIK was made using peptide sequences of Krsl as antigens (Alpha Diagnostic International, San Antonio, Tex.). UV irradiation was carried out using a UV Crosslinker (Stratagene, La Jolla, Calif.).
# (§3) Cells were lysed with 30 strokes of a tight-fitting Dounce homogenizer in lysis A buffer (10 mM KH2PO4, 1 mM EDTA, 5 mM EGTA, 10 mM MgCl2, 50 mM […], 1 mM Na3VO4, 2 mM dithiothreitol) (Wang et al., 1992). Cytoplasmic proteins (S20) were isolated from the supernatants after centrifugation of crude lysates at 20,000 ×g for 20 min. Protein concentration in S20 was measured by using the BCA assay (Pierce, Rockford, Ill.). Immunoprecipitation of p33^QIK was carried out by incubation of S20 with the specific antibody Ab-KQ at 0° C. for 1 hr. Immune complexes were adsorbed to Pansorbin (Staphylococcus aureus) (CALBIOCHEM, La Jolla, Calif.) at 0° C. for 30 min and washed with STE buffer (50 mM Tris-HCl, pH 7.0, 150 mM NaCl, 1 mM Na2 EDTA) supplemented with 0.1 mM DTT and 0.1% NP-40 and ST buffer supplemented with 1 mM DTT.
# (§4) MBP (BRL/GIBCO, Grand Island, N.Y.) was used as a substrate in the assay and the in-gel kinase assay was performed as previously described (Wang et al., 1992). Briefly, 10% SDS-polyacrylamide gel (SDS-PAG) was copolymerized with 0.4 mg/ml MBP. Cellular proteins were resolved in the MBP-immobilized SDS-PAG, followed by rinsing the gel with 20% isopropanol in buffer B (100 mM Tris, pH 8, 5 mM β-mercaptoethanol). The gel was denatured in buffer B supplemented with 6 M guanidine-HCl and renatured with buffer B supplemented with 0.04% Tween 40 (Kameshita and Fujisawa, 1989). Kinase reaction was carried out by incubating the gel with kinase buffer (20 Mm Tris, pH 7.2, 10 mM MgCl2, 15 mM β-glycerolphosphate) supplemented with 50 μM γATP and 50 μCi of [γ-^32P]ATP at 22° C. for 30 min. The gel was washed with 1% sodium pyrophosphate in 5% trichloroacetic acid. Protein kinases which phosphorylated MBP in the gel were detected by autoradiography of the [γ^32P]-labeled MBP.
# p63^Krsl = experiment: In-gel kinase assay (MBP substrate) of p63^Krsl activity in treated NIH3T3 cultures; conditions: quiescent NIH3T3 cultures stimulated with reagent
# Method: as §1
# Mouse 10T1/2 fibroblast cultures were maintained in Basal medium Eagle (BRL/GIBCO, Grand Island, N.Y.) supplemented with 10% heat-inactivated fetal bovine serum, 50 U/ml penicillin, and 5 μg/ml streptomycin, and cultivated at 37° C. Cells synchronized in quiescent state were growth-arrested by serum starvation for 48 hr. […]
# Cells were lysed with 30 strokes of a tight-fitting Dounce homogenizer in lysis A buffer (10 mM KH2PO4, 1 mM EDTA, 5 mM EGTA, 10 mM MgCl2, 50 mM […], 1 mM Na3VO4, 2 mM dithiothreitol) (Wang et al., 1992). […] Protein concentration in S20 was measured by using the BCA assay (Pierce, Rockford, Ill.). […]
# MBP (BRL/GIBCO, Grand Island, N.Y.) was used as a substrate in the assay and the in-gel kinase assay was performed as previously described (Wang et al., 1992). […] Protein kinases which phosphorylated MBP in the gel were detected by autoradiography of the [γ^32P]-labeled MBP.
# p44/42^Erk = conditions: quiescent NIH3T3 cultures (48 hr serum starvation) stimulated with reagent, 1-6 hr
# Method: as §1, §2, §3, §4
Compound,induction of p33^QIK activity (p33^QIK; cultures preincubated with caspase inhibitor prior to serum starvation and osmotic stress),kinase activity of p33^QIK (p33^QIK),kinase activity of p63^Krsl (p63^Krsl),kinase activity of p44/42^Erk (p44/42^Erk)
COC(=O)C[C@H](NC(=O)[C@H](C)NC(=O)[C@@H](NC(=O)OCc1ccccc1)C(C)C)C(=O)CF [Z-VAD-FMK] (Cbz-Val-Ala-Asp(OMe)-CH2F),neither blocked induction of p33^QIK activity,,,
C=C1[C@@H](O)[C@@H]2O[C@]3(CC[C@H](/C=C/[C@@H](C)[C@@H]4CC(C)=C[C@@]5(O[C@H](C[C@@](C)(O)C(=O)O)CC[C@H]5O)O4)O3)CC[C@H]2O[C@@H]1[C@@H](O)C[C@H](C)[C@H]1O[C@@]2(CCCCO2)CC[C@H]1C [okadaic acid],,did not result in deactivation of p33^QIK,activated p63^Krsl,
"CCCCCCCCCCCCCC(=O)O[C@@H]1[C@@H](C)[C@@]2(O)[C@@H](C=C(CO)C[C@]3(O)C(=O)C(C)=C[C@@H]23)[C@H]2C(C)(C)[C@]12OC(C)=O [phorbol ester, 12-0-tetradecanoylphorbol 13-acetate]",,progressive decrease of p33^QIK activity,,transient induction of p44/42^Erk activity
[F-].[Na+] [sodium fluoride],,resulted in deactivation of p33^QIK,,induced p44/42^Erk activity
sodium orthovanadate [sodium vanadate],,accelerated deactivation of p33^QIK,,profound and constant activation of p44/42^Erk
